Measured values taken from patent US20240199639A1, “PRETOMANID AMORPHOUS FORM” (THE GLOBAL ALLIANCE FOR TB DRUG DEVELOPMENT, INC., priority 2021, published 2024).
In brackets after ≈: the same amount, converted by molar mass. Where two headings read alike, the source gives them in different places.

Legend:
[1] = Kinetic solubility of nanospray-dried ASDs in FaSSIF at 37° C.; type: physicochemical; settings: thermodynamic from solid
Procedure: 10 mL of FASSIF was added into 8 vials containing each ASD prepared before by nanospray drying, respectively, then the suspensions were shaken using a thermomixer at 37° C. under 100 rpm, 300 μL of suspensions were withdrawn at 15, 30, 45, 60, 90, 120 and 180 mins. The samples of suspensions were centrifuged in 96-well plates at 3000 rpm for 5 min. The supernatants were diluted with the diluent (ACN/water, 50/50) and analyzed by HPLC.

[2] = Amorphous solubility of PA-824; type: physicochemical
[3] = test system: cytochrome P450; settings: cited from earlier work
[4] = Equilibrium solubility of PA-824 in FaSSIF containing 2% DMSO; type: physicochemical; settings: thermodynamic from solid, 25° C.
[5] = test system: Gram-positive and Gram-negative bacteria; settings: cited from earlier work
[6] = Kinetic solubility of nano suspension after lyophilization in FaSSIF at 37° C.; type: physicochemical; settings: thermodynamic from solid, Table 20, FaSSIF
Procedure: 10 mL of FaSSIF was added into 2 vials containing 2 batches of nano suspension after Lyophilization (equivalent to 2 mg API), then the suspensions were shaken using a thermomixer at 37° C. and 100 rpm, 300 μL of suspensions were withdrawn at 15, 30, 45, 60, 90, 120 and 180 mins. The samples of suspensions were centrifuged at 14000 rpm for 10 min. The supernatants were diluted with the diluent (ACN/water, 50/50) and analyzed by UPLC.

[7] = Induction time of crystallization of PA-824 in presence of HPMCAS; type: physicochemical
[8] = Supersaturated solubility measurement in FaSSIF with 2% DMSO; type: physicochemical; settings: for solubility kinetic at 16 min: read-out: Measured conc.(μg/mL)
Procedure: Then 20 μL of each DMSO stock solution was added to FaSSIF at 1:49 to make the final DMSO concentration at 2% v/v. The samples were stirred at room temperature for 16 min, centrifuged and supernatants analyzed by HPLC.

[9] = Kinetic solubility of Soluplus ASDs with different drug loadings in FaSSIF at 37° C.; type: physicochemical; settings: thermodynamic from solid, Table 8, FaSSIF
Procedure: 10 mL of FaSSIF was added into 3 vials containing each ASD (equivalent to 5 mg API) prepared by nanospray drying, respectively, then the suspensions were shaken using a thermomixer at 37° C. under 100 rpm, 300 μL of suspensions were withdrawn at 15, 30, 45, 60, 90, 120 and 180 mins. The samples of suspensions were centrifuged at 3000 rpm for 5 min. The supernatants were diluted with the diluent (ACN/water, 75/25) and analyzed by HPLC.

[10] = Kinetic solubility of HME ASDs in FaSSIF at 37° C.; type: physicochemical; settings: thermodynamic from solid; for solubility at 15 min: read-out: Solubility (μg/mL) 15 min; for solubility at 30 min: read-out: Solubility (μg/mL) 30 min; for solubility at 60 min: read-out: Solubility (μg/mL) 60 min; for solubility at 90 min: read-out: Solubility (μg/mL) 90 min; for solubility at 120 min: read-out: Solubility (μg/mL) 120 min; for solubility at 180 min: read-out: Solubility (μg/mL) 180 min
Procedure: 10 mL of FaSSIF was added into 4 vials containing each ASD (equivalent to 5mg API) prepared by Hot melt extrusion, respectively, then the suspensions were shaken using a thermomixer at 37° C. under 100 rpm, 300 μL of suspensions were withdrawn at 15, 30, 45, 60, 90, 120 and 180 mins. The samples of suspensions were centrifuged at 14000 rpm for 10 min. The supernatants were diluted with the diluent (ACN/water, 50/50) and analyzed by UPLC.
The milled ASD products were sieved with 60 mesh sieve, and kinetic solubility test was performed with sieved ASD products as well (Table 14).

[11] = type: physicochemical
Procedure: 10 mL of SGF was added into 8 vials containing each ASD prepared by vacuum drying as described above, then the suspensions were shaken using a thermomixer at 37° C. under 100 rpm, 300 μL of suspensions were withdrawn at 1 h and the pH values were recorded. After that, 10 mL of FaSSIF was added into the suspensions containing SGF, 300 μL of suspensions were withdrawn at 1 h and 3 h, the pH values in 3 h were also recorded. The samples of suspensions were centrifuged in 96-well plates at 3000 rpm for 2 min. The supernatants were diluted with the diluent (ACN/water, 50/50) and analyzed by HPLC. […]

[12] = 15 min, read-out: Solubility (μg/mL) 15 min
[13] = 30 min, read-out: Solubility (μg/mL) 30 min
[14] = 45 min, read-out: Solubility (μg/mL) 45 min
[15] = 60 min, read-out: Solubility (μg/mL) 60 min
[16] = 90 min, read-out: Solubility (μg/mL) 90 min
[17] = 180 min, read-out: Solubility (μg/mL) 180 min

Which results are given for `O=[N+]([O-])c1cn2c(n1)OC[C@@H](OCc1ccc(OC(F)(F)F)cc1)C2` [PA-824, (6S)-2-nitro-6-{[4-(trifluoromethoxy)benzyl]oxy}-6,7-dihydro-5H-imidazo[2,1-b][1,3]oxazine]?
solubility at 15 min [1, 12]: 22.1 µg/mL (≈ 61.7 µM); solubility at 30 min [1, 13]: 23.7 µg/mL (≈ 65.9 µM); solubility at 45 min [1, 14]: 26.1 µg/mL (≈ 72.5 µM); solubility at 60 min [1, 15]: 26.3 µg/mL (≈ 73.3 µM); solubility at 90 min [1, 16]: 23.6 µg/mL (≈ 65.8 µM); solubility at 180 min [1, 17]: 24.4 µg/mL (≈ 68 µM); solubility ([2]; aqueous buffer, in PBS): ~160 µg/mL (≈ 445 µM); solubility ([2]; in FaSSIF V1): ~300 µg/mL (≈ 835 µM); cytochrome P450 interactions [3]: no significant cytochrome P450 interactions; solubility thermodynamic at 18 h [4]: 51.4 µg/mL (≈ 143 µM); activity against a broad range of Gram-positive and Gram-negative bacteria [5]: no significant activity; solubility at 15 min [6, 12]: 31.7 µg/mL (≈ 88.3 µM); solubility at 30 min [6, 13]: 31.2 µg/mL (≈ 86.9 µM); solubility at 45 min [6, 14]: 32.8 µg/mL (≈ 91.2 µM); solubility at 60 min [6, 15]: 33.5 µg/mL (≈ 93.3 µM); solubility at 90 min [6, 16]: 32.6 µg/mL (≈ 90.9 µM); solubility at 120 min ([6]; 120 min, read-out: Solubility (μg/mL) 120 min): 39.6 µg/mL (≈ 110 µM); solubility at 180 min [6, 17]: 31.6 µg/mL (≈ 87.8 µM); Induction Time ([7]; 160 ug/mL PA-824, FaSSIF V1): 0.89 ± 0.26 min; Induction Time ([7]; 160 ug/mL PA-824, FaSSIF V1 + HF (1 mg/mL)): 77.6 ± 13.6 min; Induction Time ([7]; 160 ug/mL PA-824, PBS pH 6.5): 1.39 ± 0.18 min; Induction Time ([7]; 160 ug/mL PA-824, PBS pH 6.5 + HF (1 mg/mL)): 43.75 ± 1.34 min; Induction Time ([7]; PA-824 80 μg/mL, PBS pH 6.5, HPMCAS-HF 10 μg/mL): about 77.5 minutes; solubility at 16 min ([8]; fassif, kinetic from dmso stock): 53.3 µg/mL (≈ 148 µM); solubility kinetic at 16 min ([8]; fassif, kinetic from dmso stock, target conc. 205.60 μg/mL): 30.8 µg/mL (≈ 85.8 µM); solubility kinetic at 16 min ([8]; fassif, kinetic from dmso stock, target conc. 514.00 μg/mL): 29.5 µg/mL (≈ 82.1 µM); solubility kinetic at 16 min ([8]; fassif, kinetic from dmso stock, target conc. 616.80 μg/mL): 28.7 µg/mL (≈ 79.9 µM); solubility kinetic at 16 min ([8]; fassif, kinetic from dmso stock, target conc. 771.00 μg/mL): 30.3 µg/mL (≈ 84.4 µM); Measured conc.(μg/mL) ([8]; target conc. 51.40 μg/mL): 53.08 µg/mL; Measured conc.(μg/mL) ([8]; target conc. 102.80 μg/mL): 53.27 µg/mL; Measured conc.(μg/mL) ([8]; target conc. 411.20 μg/mL): 32.98 µg/mL; Measured conc.(μg/mL) ([8]; target conc. 1028.00 μg/mL): 30.32 µg/mL; solubility at 15 min [9, 12]: 22.1 µg/mL (≈ 61.7 µM); solubility at 30 min [9, 13]: 23.7 µg/mL (≈ 65.9 µM); solubility at 45 min [9, 14]: 26.1 µg/mL (≈ 72.5 µM); solubility at 60 min [9, 15]: 26.3 µg/mL (≈ 73.3 µM); solubility at 90 min [9, 16]: 23.6 µg/mL (≈ 65.8 µM); solubility at 180 min [9, 17]: 24.4 µg/mL (≈ 68 µM); solubility at 15 min ([10]; after sieving (60 mesh)): 31.7 µg/mL (≈ 88.3 µM); solubility at 30 min ([10]; after sieving (60 mesh)): 31.2 µg/mL (≈ 86.9 µM); solubility at 45 min ([10]; after sieving (60 mesh), 45 min, read-out: Solubility (μg/mL) 45 min): 32.8 µg/mL (≈ 91.2 µM); solubility at 60 min ([10]; after sieving (60 mesh)): 33.5 µg/mL (≈ 93.3 µM); solubility at 90 min ([10]; after sieving (60 mesh)): 32.6 µg/mL (≈ 90.9 µM); solubility at 120 min ([10]; after sieving (60 mesh)): 39.6 µg/mL (≈ 110 µM); solubility at 180 min ([10]; after sieving (60 mesh)): 31.6 µg/mL (≈ 87.8 µM); solubility at 15 min ([10]; without sieving): 37.2 µg/mL (≈ 103 µM); solubility at 30 min ([10]; without sieving): 41.3 µg/mL (≈ 115 µM); solubility at 60 min ([10]; without sieving): 46.2 µg/mL (≈ 129 µM); solubility at 90 min ([10]; without sieving): 41.3 µg/mL (≈ 115 µM); solubility at 120 min ([10]; without sieving): 41.4 µg/mL (≈ 115 µM); solubility at 180 min ([10]; without sieving): 40.7 µg/mL (≈ 113 µM); FaSSIF Conc. (μg/mL) (1 hr) ([11]; 1 h): 23.95 µg/mL; SGF Conc. (μg/mL) (1 hr) ([11]; 1 h): 12.46 µg/mL; FaSSIF Conc. (μg/mL) (3 hr) ([11]; 3 h): 24.89 µg/mL
